Laboratory results reported in ChEMBL document CHEMBL1158147, “Ultraviolet-mediated cytotoxic activity of phenylheptatriyne from Bidens pilosa L” (J Nat Prod, 1979).
Activity calls are given as the source filed them. The rule behind the calls is not given here.

Tests used:
[1] = tested on: Trichophyton mentagrophytes; assay: Phototoxicity against Trichophyton mentagrophytes at 10 ug/disk in presence of cool-white fluorescent light; format: functional, organism-based
Microsporum canis [2] = assay: Phototoxicity against Microsporum canis at 10 ug/disk in presence of long wave UV light; format: functional, organism-based
Escherichia coli [3] = assay: Phototoxicity against Escherichia coli at 10 ug/disk in dark; format: functional, organism-based
[4] = tested on: Staphylococcus epidermidis; assay: Phototoxicity against Staphylococcus albus at 10 ug/disk in presence of cool-white fluorescent light; format: functional, organism-based
DNA [5] = assay: Photochemical activity against denatured calf thymus DNA at 10 ug by hyperchromicity test; format: nucleic-acid assay; conditions: Bos taurus
[6] = tested on: Staphylococcus epidermidis; assay: Phototoxicity against Staphylococcus albus at 10 ug/disk in presence of long wave UV light; format: functional, organism-based
DNA [7] = assay: Photochemical activity against denatured calf thymus DNA at in dark after 180 mins by hyperchromicity test; format: nucleic-acid assay; conditions: Bos taurus
Saccharomyces cerevisiae [8] = assay: Phototoxicity against Saccharomyces cerevisiae at 5 ug/disk after UV irradiation for 30 mins; format: functional; conditions: light or radiation study, 0.5 h, read-out: IZ
Kocuria rosea [9] = assay: Phototoxicity against Micrococcus roseus UBC 289 at 10 ug/disk in presence of cool-white fluorescent light; format: functional, organism-based
Paraphyton cookei [10] = assay: Phototoxicity against Microsporum cookei at 10 ug/disk in presence of long wave UV light; format: functional, organism-based
Saccharomyces cerevisiae [11] = assay: Phototoxicity against Saccharomyces cerevisiae at 10 ug/disk in presence of cool-white fluorescent light; format: functional, organism-based
Enterococcus faecalis [12] = assay: Phototoxicity against Streptococcus faecalis at 10 ug/disk in presence of long wave UV light; format: functional, organism-based
Candida albicans [13] = assay: Phototoxicity against Candida albicans at 10 ug/disk in dark; format: functional, organism-based
Saccharomyces cerevisiae [14] = assay: Phototoxicity against Saccharomyces cerevisiae at 5 ug/disk after UV irradiation for 180 mins; format: functional; conditions: light or radiation study, 3 h, read-out: IZ
DNA [15] = assay: Photochemical activity against denatured calf thymus DNA at 10 ug after UV irradiation with 5.33 Joules/cm'2 for 60 mins by hyperchromicity test; format: nucleic-acid assay; conditions: Bos taurus
DNA [16] = assay: Photochemical activity against denatured calf thymus DNA 10 ug after UV irradiation with 2.67 Joules/cm'2 for 30 mins at by hyperchromicity test; format: nucleic-acid assay; conditions: Bos taurus
Candida albicans [17] = assay: Phototoxicity against Candida albicans at 10 ug/disk in presence of cool-white fluorescent light; format: functional, organism-based
Sporobolomyces [18] = assay: Phototoxicity against Sporobolomyces sp. Y138 at 10 ug/disk in presence of long wave UV light; format: functional, organism-based
Saccharomyces cerevisiae [19] = assay: Phototoxicity against Saccharomyces cerevisiae at 10 ug/disk in presence of long wave UV light; format: functional, organism-based
Proteus mirabilis [20] = assay: Phototoxicity against Proteus mirabilis UBC 5 at 10 ug/disk in presence of long wave UV light; format: functional, organism-based
Escherichia coli [21] = assay: Phototoxicity against Escherichia coli at 10 ug/disk in presence of cool-white fluorescent light; format: functional, organism-based
Candida albicans [22] = assay: Phototoxicity against Candida albicans at 5 ug/disk after UV irradiation for 180 mins; format: functional; conditions: light or radiation study, 3 h, read-out: IZ
Rhodotorula mucilaginosa [23] = assay: Phototoxicity against Rhodotorula rubra Y96 at 10 ug/disk in dark; format: functional, organism-based
Proteus mirabilis [24] = assay: Phototoxicity against Proteus mirabilis UBC 5 at 10 ug/disk in presence of cool-white fluorescent light; format: functional, organism-based
Sporobolomyces [25] = assay: Phototoxicity against Sporobolomyces sp. Y138 at 10 ug/disk in dark; format: functional, organism-based
Kocuria rosea [26] = assay: Phototoxicity against Micrococcus roseus UBC 289 at 10 ug/disk in dark; format: functional, organism-based
Fusarium sp. [27] = assay: Phototoxicity against Fusarium sp. at 10 ug/disk in presence of cool-white fluorescent light; format: functional, organism-based
Bacillus subtilis [28] = assay: Phototoxicity against Bacillus subtilis at 10 ug/disk in presence of long wave UV light; format: functional, organism-based
Enterococcus faecalis [29] = assay: Phototoxicity against Streptococcus faecalis at 10 ug/disk in dark; format: functional, organism-based
Proteus mirabilis [30] = assay: Phototoxicity against Proteus mirabilis UBC 5 at 10 ug/disk in dark; format: functional, organism-based
Torula [31] = assay: Phototoxicity against Torula sp. at 10 ug/disk in presence of long wave UV light; format: functional, organism-based
Sporobolomyces [32] = assay: Phototoxicity against Sporobolomyces sp. Y138 at 10 ug/disk in presence of cool-white fluorescent light; format: functional, organism-based
[33] = tested on: Trichophyton mentagrophytes; assay: Phototoxicity against Trichophyton mentagrophytes at 10 ug/disk in presence of long wave UV light; format: functional, organism-based
Candida albicans [34] = assay: Phototoxicity against Candida albicans at 5 ug/disk after UV irradiation for 15 mins; format: functional; conditions: light or radiation study, 0.25 h, read-out: IZ
Bacillus subtilis [35] = assay: Phototoxicity against Bacillus subtilis at 10 ug/disk in dark; format: functional, organism-based
Saccharomyces cerevisiae [36] = assay: Phototoxicity against Saccharomyces cerevisiae at 10 ug/disk in dark; format: functional, organism-based
[37] = tested on: Trichophyton mentagrophytes; assay: Phototoxicity against Trichophyton mentagrophytes at 10 ug/disk in dark; format: functional, organism-based
Paraphyton cookei [38] = assay: Phototoxicity against Microsporum cookei at 10 ug/disk in presence of cool-white fluorescent light; format: functional, organism-based
Fusarium sp. [39] = assay: Phototoxicity against Fusarium sp. at 10 ug/disk in dark; format: functional, organism-based
Candida albicans [40] = assay: Phototoxicity against Candida albicans at 5 ug/disk after UV irradiation for 30 mins; format: functional; conditions: light or radiation study, 0.5 h, read-out: IZ
DNA [41] = assay: Photochemical activity against denatured calf thymus DNA at 10 ug in dark by hyperchromicity test; format: nucleic-acid assay; conditions: Bos taurus; also: unit not given here
Pseudomonas fluorescens [42] = assay: Phototoxicity against Pseudomonas fluorescens at 10 ug/disk in dark; format: functional, organism-based
Enterococcus faecalis [43] = assay: Phototoxicity against Streptococcus faecalis at 10 ug/disk in presence of cool-white fluorescent light; format: functional, organism-based
Microsporum canis [44] = assay: Phototoxicity against Microsporum canis at 10 ug/disk in presence of cool-white fluorescent light; format: functional, organism-based
Microsporum canis [45] = assay: Phototoxicity against Microsporum canis at 10 ug/disk in dark; format: functional, organism-based
Nannizzia gypsea [46] = assay: Phototoxicity against Microsporum gypseum at 10 ug/disk in presence of long wave UV light; format: functional, organism-based
Paraphyton cookei [47] = assay: Phototoxicity against Microsporum cookei at 10 ug/disk in dark; format: functional, organism-based
DNA [48] = assay: Photochemical activity against denatured calf thymus DNA at 10 ug in dark after 30 mins by hyperchromicity test; format: nucleic-acid assay; conditions: Bos taurus
Nannizzia gypsea [49] = assay: Phototoxicity against Microsporum gypseum at 10 ug/disk in dark; format: functional, organism-based
DNA [50] = assay: Photochemical activity against denatured calf thymus DNA at 10 ug after UV irradiation with 10.67 Joules/cm'2 for 120 mins by hyperchromicity test; format: nucleic-acid assay; conditions: Bos taurus; also: unit not given here
DNA [51] = assay: Photochemical activity against denatured calf thymus DNA at 10 ug in dark after 60 mins by hyperchromicity test; format: nucleic-acid assay; conditions: Bos taurus; also: unit not given here
DNA [52] = assay: Photochemical activity against denatured calf thymus DNA at 10 ug after UV irradiation with 16.00 Joules/cm'2 for 180 mins by hyperchromicity test; format: nucleic-acid assay; conditions: Bos taurus
Fusarium sp. [53] = assay: Phototoxicity against Fusarium sp. at 10 ug/disk in presence of long wave UV light; format: functional, organism-based
Candida albicans [54] = assay: Phototoxicity against Candida albicans at 10 ug/disk in presence of long wave UV light; format: functional, organism-based
Saccharomyces cerevisiae [55] = assay: Phototoxicity against Saccharomyces cerevisiae at 5 ug/disk after UV irradiation for 15 mins; format: functional; conditions: light or radiation study, 0.25 h, read-out: IZ
Torula [56] = assay: Phototoxicity against Torula sp. at 10 ug/disk in dark; format: functional, organism-based
Kocuria rosea [57] = assay: Phototoxicity against Micrococcus roseus UBC 289 at 10 ug/disk in presence of long wave UV light; format: functional, organism-based
[58] = tested on: Staphylococcus epidermidis; assay: Phototoxicity against Staphylococcus albus at 10 ug/disk in dark; format: functional, organism-based
DNA [59] = assay: Photochemical activity against denatured calf thymus DNA at in dark after 120 mins by hyperchromicity test; format: nucleic-acid assay; conditions: Bos taurus; also: unit not given here
Pseudomonas fluorescens [60] = assay: Phototoxicity against Pseudomonas fluorescens at 10 ug/disk in presence of cool-white fluorescent light; format: functional, organism-based
Rhodotorula mucilaginosa [61] = assay: Phototoxicity against Rhodotorula rubra Y96 at 10 ug/disk in presence of long wave UV light; format: functional, organism-based
Escherichia coli [62] = assay: Phototoxicity against Escherichia coli at 10 ug/disk in presence of long wave UV light; format: functional, organism-based
Nannizzia gypsea [63] = assay: Phototoxicity against Microsporum gypseum at 10 ug/disk in presence of cool-white fluorescent light; format: functional, organism-based
Pseudomonas fluorescens [64] = assay: Phototoxicity against Pseudomonas fluorescens at 10 ug/disk in presence of long wave UV light; format: functional, organism-based

With COc1c2occc2cc2ccc(=O)oc12 [METHOXSALEN] the Activity [1] was “inactive”, the Activity (Microsporum canis [2]) was “Active” and the Activity (Escherichia coli [3]) was “inactive”. The Activity [4] was “Active”, the Activity (DNA [5]) was 0.18 and the Activity [6] was “Active”. For the same molecule, the Activity (DNA [7]) was 0.17, the zone of inhibition at 5 µg/disc (Saccharomyces cerevisiae [8]) was 18 mm and the Activity (Kocuria rosea [9]) was “inactive”. The Activity (Paraphyton cookei [10]) was “Active”, the Activity (Saccharomyces cerevisiae [11]) was “Active” and the Activity (Enterococcus faecalis [12]) was “Active”. For the same molecule, the Activity (Candida albicans [13]) was “inactive”, the zone of inhibition at 5 µg/disc (Saccharomyces cerevisiae [14]) was 20 mm and the Activity (DNA [15]) was 0.18. The Activity (DNA [16]) was 0.18, the Activity (Candida albicans [17]) was “Active” and the Activity (Sporobolomyces [18]) was “Active”. The Activity (Saccharomyces cerevisiae [19]) was “Active”, the Activity (Proteus mirabilis [20]) was “Active” and the Activity (Escherichia coli [21]) was “inactive”. The zone of inhibition at 5 µg/disc (Candida albicans [22]) was 17 mm, the Activity (Rhodotorula mucilaginosa [23]) was “inactive” and the Activity (Proteus mirabilis [24]) was “inactive”. The Activity (Sporobolomyces [25]) was “inactive”, the Activity (Kocuria rosea [26]) was “inactive” and the Activity (Fusarium sp. [27]) was “inactive”. For the same molecule, the Activity (Bacillus subtilis [28]) was “Active”, the Activity (Enterococcus faecalis [29]) was “inactive” and the Activity (Proteus mirabilis [30]) was “inactive”. For the same molecule, the Activity (Torula [31]) was “Active”, the Activity (Sporobolomyces [32]) was “Active” and the Activity [33] was “Active”. For the same molecule, the zone of inhibition at 5 µg/disc (Candida albicans [34]) was 13 mm, the Activity (Bacillus subtilis [35]) was “inactive” and the Activity (Saccharomyces cerevisiae [36]) was “inactive”. For the same molecule, the Activity [37] was “inactive”, the Activity (Paraphyton cookei [38]) was “Active” and the Activity (Fusarium sp. [39]) was “inactive”. The zone of inhibition at 5 µg/disc (Candida albicans [40]) was 15 mm, the Activity (DNA [41]) was 0.17 and the Activity (Pseudomonas fluorescens [42]) was “inactive”. For the same molecule, the Activity (Enterococcus faecalis [43]) was “inactive”, the Activity (Microsporum canis [44]) was “Active” and the Activity (Microsporum canis [45]) was “inactive”. For the same molecule, the Activity (Nannizzia gypsea [46]) was “Active”, the Activity (Paraphyton cookei [47]) was “inactive” and the Activity (DNA [48]) was 0.17. The Activity (Nannizzia gypsea [49]) was “inactive”, the Activity (DNA [50]) was 0.17 and the Activity (DNA [51]) was 0.17. The Activity (DNA [52]) was 0.18, the Activity (Fusarium sp. [53]) was “Active” and the Activity (Candida albicans [54]) was “Active”. For the same molecule, the zone of inhibition at 5 µg/disc (Saccharomyces cerevisiae [55]) was 17 mm, the Activity (Torula [56]) was “inactive” and the Activity (Kocuria rosea [57]) was “Active”. For the same molecule, the Activity [58] was “inactive”, the Activity (DNA [59]) was 0.17 and the Activity (Pseudomonas fluorescens [60]) was “inactive”. The Activity (Rhodotorula mucilaginosa [61]) was “Active”, the Activity (Escherichia coli [62]) was “Active” and the Activity (Nannizzia gypsea [63]) was “Active”. For the same molecule, the Activity (Pseudomonas fluorescens [64]) was “inactive”.
